The values that follow come from PMC6514996, “Discovery of Potent and Selective Halogen-Substituted Imidazole-Thiosemicarbazides for Inhibition of Toxoplasma gondii Growth In Vitro via Structure-Based Design” (Molecules, 2019).

Structures are written as SMILES. In brackets after ≈: the same amount, converted by molar mass.

The nature of data set [1]: Cytotoxicity against L929 cells, MTT cell viability assay (ISO 10993-5:2009(E)). It counts as cell-based. Particulars: mouse, L929 mouse fibroblast cells; for viability at 24 h, 5 µg/mL / viability at 24 h, 25 µg/mL / viability at 24 h, 50 µg/mL / viability at 24 h, 125 µg/mL / viability at 24 h, 250 µg/mL / viability at 24 h, 500 µg/mL / viability at 24 h, 1000 µg/mL: read-out: viability of L929 cells (% of viable cells); for CC50 at 24 h: 50% cell proliferation inhibition, L929 cells. The source says:
Since T. gondii is an obligate intracellular parasite that requires invasion of mammalian host cells to proliferate, compounds that inhibit parasite growth might be toxic to host cells as well. Therefore, as an initial indicator for host cell toxicity, we firstly evaluated compounds 5–16 for their ability to inhibit the growth of mouse fibroblast (L929) cells line according to the international standards: ISO 10993-5:2009(E).
To calculate the reduction of viability compared to the untreated blank the equation was used: viability (%) = 100% × sample OD570 (the mean value of the measured optical density of the treated cells)/blank OD570 (the mean value of the measured optical density of the untreated cells). CC50—represents the concentration of tested compounds that was required for a 50% cell proliferation inhibition in vitro. The effect of the tested compounds on the cell lines was measured using MTT assay according to the international standard: ISO 10993-5:2009(E). CC50 values were determined based on the plotted curves using GraphPad Prism program (version 8.0.1).
Cell culture: the L929 mouse fibroblast (ATTC® CCL-1™) was routinely cultured in IMDM (Iscove’s Modified Dulbecco Medium, Biowest, Nuaille, France), supplemented with 10% HIFBS, 100 U/mL penicillin and 100 μg/mL streptomycin. Cells were trypsinized twice a week and seeded at a density of 1 × 10^6 per T25 cell culture flask and incubated for 24–48 h in a 37 °C and 10% CO2 to achieve a confluent monolayer.
Cell viability assay: Assays were performed according to international standards: ISO 10993-5:2009(E), Biological evaluation of medical devices, Part 5: Tests for in vitro cytotoxicity. Cell viability were evaluated using the tetrazolium salt [3-(4,5-dimethylthiazol-2-yl)-2,5-diphenyltetrazolium bromide] (Sigma) and mouse fibroblasts L929 cells. For this assay we used only the culture medium, RPMI 1640, without phenol red (Biowest) supplemented with 10% HIFBS, 2 mM L-glutamine (Sigma), 100 U/mL penicillin, 100 μg/mL streptomycin. Shortly after, a 1 × 10^4/well of L929 cells were placed into 96-well plates and incubated in 37 °C and 10% CO2. Afterwards, an old culture medium was replaced by 100 μL of compounds and drugs dilutions in culture medium and the cells were treated for 24 h. Moreover, cells were treated with a 4.0–0.03% concentration of DMSO and 1M NaOH as a compound and drugs solvent (data not shown). Then, 50 μL of 1 mg/mL of MTT solution in RPMI 1640 without phenol red was added to each well and incubated 2h (37 °C, 10% CO2). Next, cell culture medium was aspirated cautiously and 150 μL of DMSO was added to each well, the plates were gently mixed. Then 25 μL 0.1M glycine buffer (pH = 10.5) (Sigma) was added. The optical density at 570 nm on the ELISA reader (Multiskan EX, Labsystems, Vienna, VA, USA), was read. The results were expressed as a percentage of viability compared to untreated cells. All experiments were performed in triplicate. For comparison reasons, two compounds known from our previous studies (6 and 9) were included in the bioassay performed for compounds 5, 7, 8, 9–16.

Data set [2] deals with Toxoplasma gondii RH strain tachyzoites (ATCC PRA 310). In words: Influence on T. gondii proliferation in Hs27 cells, [3H]-uracil incorporation assay. It counts as cell-based. The settings on record: for IC50: Toxoplasma gondii, HS27, 50% inhibition of T. gondii RH proliferation in vitro, Hs27 host cells, [3H]-uracil incorporation; for SR (selectivity ratio): ratio of CC50 (L929) to IC50 (T. gondii).

The nature of data set [3]: Lipophilicity by HPLC (logkw extrapolation, OECD guideline). It is filed as physicochemical. The settings on record: Phenomenex Synergi 4 µm Polar-RP column, methanol:water, calibration with seven standards. The protocol:
HPLC experiments were performed using a chromatograph equipped with an Elite LaChrom L-2130 gradient pump, L-2455 DAD detector, L-2300 column oven, and L-2200 autosampler (Hitachi-Merck, Darmstadt, Germany). The tested samples were applied into the Phenomenex Synergi 4 µm Polar-RP chromatographic column (Phenomenex, Torrance, CA, USA) (150 mm length, 4.6 mm i.d.). Mobile phases were degassed using a built-in membrane degasser.
Chromatographic analysis: 5 µL of each sample (0.1% methanolic solutions) was applied into the chromatographic column and chromatograms were developed at a flow rate of 1.0 mL min^−1 in the isocratic mode using various concentrations of methanol in the binary polar mobile phase: methanol:water (40:60, 45:55, 50:50, 55:45, 60:40, 65:35, and 70:30 (v/v)) Chromatograms were detected at 254 nm. All experiments were repeated in triplicate, and the final results were their arithmetic mean. Dead time was measured for uracil (Calbiochem—Merck, Darmstadt, Germany). All the experiments were performed at ambient temperature.
The chromatographic lipophilicity parameter (logkw) for 5–16 was obtained by the extrapolation of the retention parameter logk to pure water, according to the equation: logk = logkw − S × φ(1) where logkw is the value of the retention factor of a substance in pure water, S is the slope of the regression curve, and φ is the concentration (v/v) of methanol in the mobile phase.
Subsequently, logPHPLC parameters for 5–16 were calculated according to OECD guidelines, based on the equation obtained for seven standards with known lipohilicity parameters (logPo/w): logPo/w = 1.0239(± 0.03)·logkw − 0.1541(± 0.08); n = 7; r = 0.9976; se = 0.08; F = 1047.8(2)

Data set [4] relates to Toxoplasma gondii tachyzoites. Also noted: method as in PMID 30744161. Particulars: inhibition of T. gondii tachyzoite proliferation, previous study; ref [19]; cited from earlier work.

On to `Cc1nc[nH]c1C(=O)NNC(=S)Nc1ccccc1Cl` [Compound 8, 4-(2-Chlorophenyl)-1-(4-methylimidazol-5-oyl)thiosemicarbazide], for which the melting point fell in the range of 217 to 219 °C. Also, in data set [1], the viability at 24 h, 5 µg/mL was 89.9%; the viability at 24 h, 25 µg/mL is 86.3%; the viability at 24 h, 50 µg/mL turned out to be 78.5%; the viability at 24 h, 125 µg/mL is 69.4%. For the same molecule, in data set [1], the viability at 24 h, 250 µg/mL amounted to 64.8%; the viability at 24 h, 500 µg/mL was 57.1%; the viability at 24 h, 1000 µg/mL is 39.5%; the CC50 at 24 h stood at 630 µg/mL (≈ 2030 µM). Besides, in data set [2], the IC50 was 35.6 µg/mL (≈ 115 µM) and the “SR (selectivity ratio)” value is reported as 17.69. In addition, in data set [3], the chromatographic logP is 3.17.

Molecule `Cc1nc[nH]c1C(=O)NNC(=S)Nc1ccccc1Br` [Compound 11, 4-(2-Bromophenyl)-1-(4-methylimidazol-5-oyl)thiosemicarbazide] came in with a melting point of 205 to 207 °C. Further, in data set [1], the viability at 24 h, 5 µg/mL was 94.7%; the viability at 24 h, 25 µg/mL stood at 93%; the viability at 24 h, 50 µg/mL amounted to 87.5%; the viability at 24 h, 125 µg/mL came to 76.3%. Also, in data set [1], the viability at 24 h, 250 µg/mL was 70%; the viability at 24 h, 500 µg/mL is 47.1%; the viability at 24 h, 1000 µg/mL is 29.8%; half-maximal cytotoxicity (CC50 at 24 h) was put at 495 µg/mL (≈ 1400 µM). In addition, in data set [2], the IC50 amounted to 27.6 µg/mL (≈ 78.1 µM) and the “SR (selectivity ratio)” value amounted to 17.91. In addition, the chromatographic logP in data set [3] was 3.23.

Consider `Cc1nc[nH]c1C(=O)NNC(=S)Nc1cccc(I)c1` [Compound 15, 4-(3-Iodophenyl)-1-(4-methylimidazol-5-oyl)thiosemicarbazide], for which the melting point fell in the range of 210 to 212 °C. In data set [1], the viability at 24 h, 5 µg/mL stood at 96.7%; the viability at 24 h, 25 µg/mL stood at 87.3%; the viability at 24 h, 50 µg/mL amounted to 70.8%; the viability at 24 h, 125 µg/mL came to 66.2%. In data set [1], the viability at 24 h, 250 µg/mL stood at 54%; the viability at 24 h, 500 µg/mL stood at 8.53%; the viability at 24 h, 1000 µg/mL amounted to 8.49%; the CC50 at 24 h was 197 µg/mL (≈ 492 µM). For the same molecule, in data set [2], the IC50 came to 10.3 µg/mL (≈ 25.7 µM) and the “SR (selectivity ratio)” value is 19.16. For the same molecule, in data set [3], the chromatographic logP is 3.98.

`Cc1nc[nH]c1C(=O)NNC(=S)Nc1ccc(I)cc1` [Compound 16, 4-(4-Iodophenyl)-1-(4-methylimidazol-5-oyl)thiosemicarbazide] came in with a melting point of 225 to 227 °C. Further, in data set [1], the viability at 24 h, 5 µg/mL came out at 96.7%; the viability at 24 h, 25 µg/mL turned out to be 84.4%; the viability at 24 h, 50 µg/mL was 66.2%; the viability at 24 h, 125 µg/mL stood at 68.1%. Further, in data set [1], the viability at 24 h, 250 µg/mL stood at 49.9%; the viability at 24 h, 500 µg/mL is 16.3%; the viability at 24 h, 1000 µg/mL turned out to be 13.5%; half-maximal cytotoxicity (CC50 at 24 h) was put at 195 µg/mL (≈ 486 µM). Besides, in data set [2], the IC50 was 22 µg/mL (≈ 54.9 µM) and the “SR (selectivity ratio)” value is given as 8.86. The chromatographic logP in data set [3] is 3.95.

`Nc1ccc(S(=O)(=O)Nc2ncccn2)cc1` [sulfadiazine, 4-amino-N-(2-pyrimidinyl)benzenesulfonamide, reference compound] came in with a CC50 at 24 h in data set [1] of over 2500 µg/mL. Also, in data set [2], the concentration for half-maximal inhibition (IC50) was over 2500 µg/mL and the “SR (selectivity ratio)” value is given as under 0.92. In addition, the IC50 in data set [4] is given as ~ 2721.45 µg/mL.
